# Test results published in publication PMC10363480 (Plant Communications, 2023).
# System: mitochondria or chloroplast of Chlamydomonas reinhardtii
# Assay: Subcellular localization of Venus reporter by epifluorescence microscopy (manual targeting assignment)
# Type: cell-based
# From the text: In a bid to keep peptidase recognition sites intact, C-terminal elements were designed to start 10 residues upstream of the cleavage site, even though this slightly truncates TP helices. Peptides carrying the 15-amino-acid cTP N-terminus (cTP-N) will be denoted ^cP. Similarly, peptides with C-terminal elements from RCA1-cTP (cTP-C) or CAG2-mTP (mTP-C) will be denoted P^c or P^m, respectively. Peptide variants are used to drive the subcellular localization of a Venus fluorescent reporter protein, which was assessed using fluorescence microscopy; in Figure 2, an executive overview of observed Venus localization is presented for all constructs. […] Here, we use automated image segmentation to validate our subcellular localization assessment (Supplemental Figure 2, Supplemental text). […] The reader will be asked to return to Figure 2 throughout, with Figures 3 and 4 providing selected micrographs as examples highlighting particular points of interest.
# Chlamydomonas TP sequences were amplified from genomic DNA extracted from strain T222+ (CC-5101). Templates for codon-optimized HA-RAMP, RP, and R→K modified TP sequences were obtained by gene synthesis (Eurofins Genomics). Correct assembly was verified by sequencing (Eurofins Genomics). Linear transformation cassettes were generated through restriction digestion with EcoRV (New England Biolabs).
# Constructs were transformed into wild-type strain T222+ (CC-5101) using a protocol described previously ([Onishi and Pringle, 2016]), except using 4 μl of DNA at 2 μg/μl.
# Strains with suspected mitochondrial targeting were treated with 0.1 μM MitoTracker Red CMXRos (Thermo Fisher Scientific) in growth medium for 30 min in the dark and washed with TAP prior to taking images.
# Legend for Fig. S3 – S20. Three independent transformant lines (Strains 1-3) are shown for each combination of modifications (A-L), represented by a cartoon and a shorthand description (cf. Fig.
# 2). Where a construct was interpreted as generating reporter localization in mitochondria or […]
# Epifluorescence microscopy images of typical cells for each strain are shown. MitoTracker fluorescence, false-coloured in cyan, indicates the position of mitochondria (although parts of the cell exterior are sometimes also stained). False-coloured yellow fluorescence from the Venus channel reports on the subcellular localization of the fluorescent reporter. Chlorophyll autofluorescence, shown in magenta, indicates the location of the chloroplast. Scale bars are 5µm. Brightness (Br.) was adjusted for clarity: fluorescence intensity values were restricted to the range shown for each channel by matching coloured rectangles. Intensity scales to 0 at the bottom of the panel, and to 65535 at the top.
# On the right-hand side, quantitative information associated with each construct is shown. Data was normalized such that averages range from 0 to 1 across all constructs (cf. Fig S2). Individual cell measurements may exceed this range; for clarity, the range shown here is limited to -0.5 to 1.5, with outliers that have more extreme values shown as lying beyond a dashed line. Strain 1 is plotted as circles, strain 2 as squares, and strain 3 as diamonds. Venus: Fluorescence plate reader data of transformants screened for this construct (Venus fluorescence, accounting for cell density using linear regression of OD750 and chlorophyll fluorescence trained on ‘no venus’ control transformants). Transformants that were not selected after screening are shown as small grey circles. A colour code ranging from white (low Venus fluorescence) to black (high Venus fluorescence) is used for strains 1-3 and the average thereof. Automated image quantification data: pyr/chl: Venus channel signal in the pyrenoid relative to in the chlorophyll region; mt/cell: Venus channel signal in mitochondria relative to the whole cell. Each point corresponds to a single cell.
# The colour code code is the same as that below distributions in Fig. S2, i.e. blue highlights the […]
# [1] = targeting of the Venus reporter fused to the peptide, expressed in Chlamydomonas reinhardtii, manual assignment from epifluorescence microscopy, full or partial
# [2] = peptide-Venus reporter construct expressed in Chlamydomonas reinhardtii, manual targeting assignment (Neither / Mitochondria / Chloroplast / Dual; partial = partial targeting)
# [3] = manual targeting assignment of the Venus reporter construct in Chlamydomonas: Neither / Mitochondria / Chloroplast / Dual, (partial) = partial targeting
sequence,measurement,setting,value
MQVTMKSSAVSGQRVALWMTLLRRVLRAAARAALNAVLVGANALTQTAESFRGVSSQFFDAPNGPSVKQVLIEDEW [c.DS4.R.m],Localisation,[1],Neither
MVNYGNGVSCSKTKCSVNWGIITHQAFRVTSGVASG [B15.K],Localisation,[2],Neither
MQVTMKSSAVSGQRVNIVVYWNFTLWHMDINARNAGCDGEGSLTQTAESFRGVSSQFFDAPNGPSVKQVLIEDEW [c.RP1.K.m],Localisation,[1],Neither
MGGARVATRLTQTAESFRGVSSQFFDAPNGPSVKQVLIEDEW [CH.R.m],Localisation,[3],Neither
MGKIPVKAIKKAGAAIGKGLRAINIASTAHDVYSFFKPKHKKKSVRRAQLQVVASSRKQMGRWRSIDAGVDASDDQ [SIM.K.c],Localisation,[1],Neither
MQVTMKSSAVSGQRVMWLSKTAKKLENSAKKRISEGIAIAIKGGSR [c.CP3.K],Localisation,[1],Neither
MALWRTMLRRLGTMALHAGRAAFGAAADTISQLTQTAESFRGVSSQFFDAPNGPSVKQVLIEDEW [DDM.R.m],Localisation,[3],Neither
MQVTMKSSAVSGQRVMALWKTMLKKLGTMALHAGKAAFGAAADTISQSVRRAQLQVVASSRKQMGRWRSIDAGVDASDDQ [c.DDM.K.c],Localisation,[1],Chloroplast (partial)
MALWKTMLKKLGTMALHAGKAAFGAAADTISQSVRRAQLQVVASSRKQMGRWRSIDAGVDASDDQ [DDM.K.c],Localisation,[1],Neither
MDEVNNDNCRIKFKGDISSESDKMNINYLTQTAESFRGVSSQFFDAPNGPSVKQVLIEDEW [RP2.K.m],Localisation,[1],Neither
MGWIRDFGRRIERVGQHTRDATIQTIAVAQQAANVAATLRG [S1D.R],Localisation,[3],Neither
MLKRVGQSLVPFARAGSVRRAQLQVVASSRKQMGRWRSIDAGVDASDDQ [MH.R.c],Localisation,[3],Dual
MWLSRTARRLENSARRRISEGIAIAIRGGSRSVRRAQLQVVASSRKQMGRWRSIDAGVDASDDQ [CP3.R.c],Localisation,[2],Chloroplast
MQVTMKSSAVSGQRVGRIPVRAIRRAGAAIGRGLRAINIASTAHDVYSFFRPRHRRR [c.SIM.R],Localisation,[3],Chloroplast
MQVTMKSSAVSGQRVALWRTMLRRLGTMALHAGRAAFGAAADTISQ [c.DDM.R],Localisation,[3],Mitochondria (partial)
MALWMTLLRRVLRAAARAALNAVLVGANA [DS4.R],Localisation,[2],Neither
MGRIPVRAIRRAGAAIGRGLRAINIASTAHDVYSFFRPRHRRR [SIM.R],Localisation,[3],Neither
MQVTMKSSAVSGQRVMGWIRDFGRRIERVGQHTRDATIQTIAVAQQAANVAATLRGSVRRAQLQVVASSRKQMGRWRSIDAGVDASDDQ [c.S1D.R.c],Localisation,[3],Chloroplast
MSFLTTFRDLAIRAARSAGQSVLSTLSCRLSNTC [B2I.R],Localisation,[3],Mitochondria
MLTQTAESFRGVSSQFFDAPNGPSVKQVLIEDEW [-.m],Localisation,[3],Neither
MDEVNNDNCRIRFRGDISSESDRMNINY [RP2.R],Localisation,[3],Neither
MGGAKVATK [CH.K],Localisation,[3],Neither
MGLFSKFNKKKIKSGLIKIIKTAGKEAGLEALRTGIDVIGCKIKGECLTQTAESFRGVSSQFFDAPNGPSVKQVLIEDEW [E1S.K.m],Localisation,[2],Neither
MQVTMKSSAVSGQRVMGKIPVKAIKKAGAAIGKGLRAINIASTAHDVYSFFKPKHKKKSVRRAQLQVVASSRKQMGRWRSIDAGVDASDDQ [c.SIM.K.c],Localisation,[1],Chloroplast
MSFLTTFKDLAIKAAKSAGQSVLSTLSCKLSNTC [B2I.K],Localisation,[1],Mitochondria
MFLPLLAGLAANFLPKIFCKITRKCLTQTAESFRGVSSQFFDAPNGPSVKQVLIEDEW [B1E.K.m],Localisation,[2],Neither
MQVTMKSSAVSGQRVMGLFSRFNRRRIRSGLIRIIRTAGREAGLEALRTGIDVIGCRIRGECSVRRAQLQVVASSRKQMGRWRSIDAGVDASDDQ [c.E1S.R.c],Localisation,[2],Chloroplast
MKYYGNGVSCNKKGCSVDWGKAIGIIGNNAAANLTTGGKAGWKGSVRRAQLQVVASSRKQMGRWRSIDAGVDASDDQ [EHF.K.c],Localisation,[1],Chloroplast (partial)
MKYYGNGVHCTKSGCSVNWGEAFSAGVHRLANGGNGFW [LCA.K],Localisation,[2],Neither
MFLPLLAGLAANFLPRIFCRITRRC [B1E.R],Localisation,[2],Neither
MGRIPVRAIRRAGAAIGRGLRAINIASTAHDVYSFFRPRHRRRLTQTAESFRGVSSQFFDAPNGPSVKQVLIEDEW [SIM.R.m],Localisation,[3],Neither
MQVTMKSSAVSGQRVMVNYGNGVSCSRTRCSVNWGIITHQAFRVTSGVASGLTQTAESFRGVSSQFFDAPNGPSVKQVLIEDEW [c.B15.R.m],Localisation,[2],Chloroplast
MQVTMKSSAVSGQRVDEVNNDNCRIKFKGDISSESDKMNINYLTQTAESFRGVSSQFFDAPNGPSVKQVLIEDEW [c.RP2.K.m],Localisation,[1],Neither
MQVTMKSSAVSGQRVNIVVYWNFTLWHMDINARNAGCDGEGSSVRRAQLQVVASSRKQMGRWRSIDAGVDASDDQ [c.RP1.K.c],Localisation,[1],Neither
MALWRTMLRRLGTMALHAGRAAFGAAADTISQ [DDM.R],Localisation,[3],Neither
MGLLLDTLRGAARDIAGIALERLRCRITGCRP [R2G.R],Localisation,[3],Mitochondria (partial)
MDEVNNDNCRIRFRGDISSESDRMNINYLTQTAESFRGVSSQFFDAPNGPSVKQVLIEDEW [RP2.R.m],Localisation,[3],Neither
MQVTMKSSAVSGQRVMLKRVGQSLVPFARAGLTQTAESFRGVSSQFFDAPNGPSVKQVLIEDEW [c.MH.R.m],Localisation,[3],Neither
MALWMTLLKKVLKAAAKAALNAVLVGANASVRRAQLQVVASSRKQMGRWRSIDAGVDASDDQ [DS4.K.c],Localisation,[2],Neither
MQVTMKSSAVSGQRVGGARVATR [c.CH.R],Localisation,[3],Neither
MGLLLDTLKGAAKDIAGIALEKLKCKITGCKPSVRRAQLQVVASSRKQMGRWRSIDAGVDASDDQ [R2G.K.c],Localisation,[1],Neither
MVNYGNGVSCSRTRCSVNWGIITHQAFRVTSGVASGLTQTAESFRGVSSQFFDAPNGPSVKQVLIEDEW [B15.R.m],Localisation,[2],Neither
MKYYGNGVHCTKSGCSVNWGEAFSAGVHRLANGGNGFWLTQTAESFRGVSSQFFDAPNGPSVKQVLIEDEW [LCA.K.m],Localisation,[2],Neither
MQVTMKSSAVSGQKVGGAKVATKLTQTAESFRGVSSQFFDAPNGPSVKQVLIEDEW [c.CH.K.m],Localisation,[3],Neither
MLKRVGQSLVPFARAGLTQTAESFRGVSSQFFDAPNGPSVKQVLIEDEW [MH.R.m],Localisation,[3],Mitochondria (partial)
MALWMTLLRRVLRAAARAALNAVLVGANALTQTAESFRGVSSQFFDAPNGPSVKQVLIEDEW [DS4.R.m],Localisation,[1],Neither
MGLFSKFNKKKIKSGLIKIIKTAGKEAGLEALRTGIDVIGCKIKGEC [E1S.K],Localisation,[2],Neither
MQVTMKSSAVSGQRVAAAAAAAASVRRAQLQVVASSRKQMGRWRSIDAGVDASDDQ [c.AA.c],Localisation,[1],Chloroplast (partial)
MGKIPVKAIKKAGAAIGKGLRAINIASTAHDVYSFFKPKHKKKLTQTAESFRGVSSQFFDAPNGPSVKQVLIEDEW [SIM.K.m],Localisation,[1],Neither
MWLSKTAKKLENSAKKRISEGIAIAIKGGSRSVRRAQLQVVASSRKQMGRWRSIDAGVDASDDQ [CP3.K.c],Localisation,[2],Neither
MQVTMKSSAVSGQRVGIGKFLHSAKKFGKAFVGEIMNSLTQTAESFRGVSSQFFDAPNGPSVKQVLIEDEW [c.MII.K.m],Localisation,[2],Mitochondria (partial)
MGGAKVATKSVKKAQLQVVASSKKQMGKWKSIDAGVDASDDQ [CH.K.c],Localisation,[3],Neither
MLKKVGQSLVPFAKAG [MH.K],Localisation,[3],Neither
MQVTMKSSAVSGQRVALWMTLLKKVLKAAAKAALNAVLVGANASVRRAQLQVVASSRKQMGRWRSIDAGVDASDDQ [c.DS4.K.c],Localisation,[1],Neither
MQVTMKSSAVSGQRVLTQTAESFRGVSSQFFDAPNGPSVKQVLIEDEW [c.-.m],Localisation,[3],Neither
MKYYGNGVHCTRSGCSVNWGEAFSAGVHRLANGGNGFWLTQTAESFRGVSSQFFDAPNGPSVKQVLIEDEW [LCA.R.m],Localisation,[2],Neither
MQVTMKSSAVSGQRVSFLTTFRDLAIRAARSAGQSVLSTLSCRLSNTCSVRRAQLQVVASSRKQMGRWRSIDAGVDASDDQ [c.B2I.R.c],Localisation,[3],Chloroplast
